Experimental data from article PMC8761912, “Cryptosporidium parvum Pyruvate Kinase Inhibitors With in vivo Anti-cryptosporidial Efficacy” (Frontiers in Microbiology, 2022).
Read-outs that look alike come from different tables or passages of the source. Marks after values point to notes of the source that are not given here.

B1: rCpPyK (Cryptosporidium parvum Iowa II) (protein)
chain: MISNDHLKRLASTSAVMSCTLGKATCLGMDKICSPLADNDVTQRKTQIICTIGPSCNNVESLIGLIDKGMSVARLNFSHGDHESHFKTLQNIREAAKARPHSTVGIMLDTKGPEIRTGMLEGGKPIELKAGQTLKITTDYSMLGNSECISCSYSLLPKSVQIGSTVLIADGSLSTQVLEIGDDFIVCKVLNSVTIGERKNMNLPGCKVHLPIIGDKDRHDIVDFALKYNLDFIALSFVQNGADVQLCRQIISENTQYSNGIPSSIKIISKIENLEGVINFDSICSESDGIMVARGDLGMEIPPEKIFVAQKCMISKCNVAGKPVVTATQMLESMIKSNRPTRAEMTDVANAVLDGSDCVMLSGETANGAFPFDAVNVMSRVCAQAETCIDYPVLYHAIHSSVPKPVAVPEAIACSAVESAHDVNAKLIITITETGNTARLISKYRPSQTIIACTAKPEVARGLKIARGVKTYVLNSIHHSEVVISNALALAKEESLIESGDFAIAVHGVKESCPGSCNLMKIVRCP

How the values were obtained:
[1] = Physicochemical properties adapted from PubChem; conditions: based on Supplementary Table 2 properties
Source text: Supplementary Table S2. Physicochemical properties of identified CpPyK inhibitors (Adapted from: https://pubchem.ncbi.nlm.nih.gov).
NSC Molecular Molecular Number of Number of Number of Polar number IUPAC name formula weight cLog(p) Hydrogen bond Hydrogen bond rotatable surface donors acceptors bonds area (Å²) […]

C. parvum = assay: In vitro anti-Cryptosporidium activity in infected HCT-8 cells (immunofluorescence assay); type: cell-based, Cryptosporidium parvum; conditions: for effect on in vitro proliferation and viability of C. parvum: 25 μM, added immediately after infection, 48 h of culture, vs untreated parasites; for EC50: Cryptosporidium parvum; for effect on proliferation of intracellular C. parvum in HCT-8 cells: varying concentrations, 0 h or 2 h PI, analysed 48 h PI, vs infected cultures without compound
Experimental: Once confluent, the cells were infected with 10^5 freshly excysted C. parvum sporozoites per well, immediately followed by the addition of anti-CpPyK compounds (reconstituted in DMSO) to one set of wells. Control infected cells were treated with DMSO volumes equivalent to those used for the compound-treated cultures. Paromomycin reconstituted in distilled sterile water, served as a positive control at a concentration of 200 μM. […] Briefly, the medium was removed from the culture wells, and the cells were washed two times with PBS before fixation with pre-chilled methanol-acetic acid (9:1) for 5 min at room temperature. Residual fixative was removed by rinsing the wells with PBS. Cells were rehydrated and permeabilized by washing twice with a buffer containing 0.1% Triton X-100, 0.35 M NaCl, and 0.13 M Tris-base, pH 7.6. Normal goat serum (5% in PBS) was used as a blocking agent, and the cell monolayer was stained with a fluorescein-labeled anti-C. parvum polyclonal antibody (Sporo-Glo™; Waterborne, Inc.) overnight at 4°C. The stained cells were washed twice with PBS followed by the addition of 200 μl water to each well. Plates were then imaged with an inverted fluorescence microscope using a 20× objective. The fluorescence generated by intracellular C. parvum parasites was quantified from nine microscopic fields per well of a 96-well plate using the batch process function in ImageJ version v1.50 (NIH, United States) after setting a threshold for the detection of parasites. Control wells with uninfected monolayers were included for background subtraction. Experiments were performed in triplicate and repeated at least three times.
One set of wells with confluent HCT-8 cells received CpPyK inhibitors immediately after C. parvum infection, while the same compounds were added to the other set of wells 2 h post-infection (PI). Control infected cells were treated with varying volumes of DMSO equivalent to the ones used for the compound-treated cultures. Cell monolayers were processed for immunofluorescence analysis after 48 h of incubation as described above. Samples were run in triplicate and three independent assays were performed. EC50 values were calculated using non-linear regression analysis of the mean dose-response curve data in GraphPad PRISM® v8.

[2] = In vitro compound cytotoxicity assay (WST-1); type: cell-based; conditions: human, uninfected HCT-8 cells
Experimental: Compounds were tested for cytotoxicity in human ileocecal colorectal adenocarcinoma cells [HCT-8 (HRT-18); ATCC® CCL-244™, CVCL_2478] by using the cell proliferation reagent WST-1 (Roche) according to the manufacturer’s protocol. The WST-1 assay is a quantitative colorimetric assay for measurement of metabolically active cells. This assay is based on the reduction of the tetrazolium salt (WST-1) by viable cells. About 5 × 10^4 HCT-8 cells were seeded per well in 96-well plates and grown overnight in 200 μl of RPMI-1640 medium (without phenol red) (Gibco) supplemented with 2.5 g/L of glucose, 1 mM sodium pyruvate, 1.5 g/L of sodium bicarbonate, 10% heat-inactivated FBS (Gibco), and 1 × Antibiotic-Antimycotic (Gibco) at 37°C with 5% CO2 in a humidified incubator. Upon reaching 80–90% confluency, cells were treated with the chemical compounds reconstituted in DMSO for 24 h. The volume of DMSO was kept below 1% of the total culture volume in all the wells to avoid DMSO cytotoxicity. Control wells received equivalent volumes of DMSO used in the reconstituted compounds. After 24 h of culture, 10 μl of the WST-1 reagent was added to each well, and the plates were incubated for 1 h at 37°C with 5% CO2 under dark conditions. The plates were shaken thoroughly and 150 μl of the medium from each well was transferred to a new clear flat-bottom black 96-well plate (Corning). Absorbance was read at a test wavelength of 440 nm and a reference wavelength of 690 nm using a multi-mode microplate reader (Spectra Max iD3; Molecular Devices, United States). The mean percent toxicity (MPT) of each compound was derived by dividing the difference in absorbance (OD) between the compound-treated cells and the DMSO-treated cells by the absorbance from the DMSO-treated cells and multiplying the product by 100:
(2) MPT=[(MeanODDMSO-treated-MeanODCompound-treated)÷MeanODDMSO-treated]×100.
The half maximal cytotoxic concentration (CC50) values were determined by using non-linear regression analysis in GraphPad PRISM® v8. Assays were performed in triplicate and repeated three times.

[3] = target: recombinant CpPyK (rCpPyK) protein (Cryptosporidium parvum, UniProt Q5CSM7); assay: rCpPyK enzymatic activity inhibition assay (ATP detection, Cell Titer-Glo luminescence); type: biochemical
Experimental: (§1) The in vitro enzymatic activity of the rCpPyK protein was determined by quantitating the amount of ATP produced by the transfer of a phosphate group from phosphoenolpyruvate to adenosine diphosphate (ADP) in the presence of varying concentrations of the recombinant protein (Figure 1A). A typical assay contained 0.5 mM phosphoenolpyruvate, 0.6 mM ADP, 50 mM Tris buffer pH 7.5, 60 mM MgSO4, 100 mM KCl, and varying concentrations of rCpPyK incubated for 3 h at room temperature. The ATP generated was detected in a reaction volume of 50 μl in white opaque-walled 96 well plates by the luciferase-based Cell Titer-Glo 2.0 reagent (Promega) following the manufacturer’s instructions. The enzyme kinetics of rCpPyK were determined by using varying phosphoenolpyruvate (0–8 mM) and ADP (0–2 mM) concentrations in an enzymatic reaction catalyzed by a fixed concentration of the recombinant protein (6 ng/μl). In all assays, reaction mixtures without rCpPyK were included as negative controls. Three independent assays were performed for each experiment, and samples were run in triplicate. The luminescence generated was recorded using a multi-mode microplate reader (Spectra Max iD3; Molecular Devices, United States). GraphPad PRISM® v8 software was used to fit the Michaelis–Menten model directly to the substrate-velocity data to determine the enzymatic kinetic parameters for rCpPyK.
The Diversity Set VI chemical library (Supplementary Table 1) was obtained from the National Cancer Institute (NCI)/Developmental Therapeutics Program (DTP) Open Repository collection of chemical compounds.^1 Compounds were individually reconstituted in molecular biology grade dimethyl sulfoxide (DMSO) from Sigma-Aldrich and stored at −20°C. From the library, 1,424 compounds were screened in 96-well plates using the rCpPyK catalyzed enzyme assay to identify potential CpPyK inhibitors. The reactions were performed in 50 μl reaction volume containing 0.5 mM phosphoenolpyruvate, 0.6 mM ADP, 50 mM Tris buffer pH 7.5, 60 mM MgSO4, 100 mM KCl, and 6 ng/μl of rCpPyK protein with or without compound. The concentration of DMSO in all reaction mixtures was 1% (v/v). Control reactions without rCpPyK protein were included for background subtraction. Following 3 h of incubation at room temperature, an equal volume of the Cell Titer-Glo 2.0 reagent was added to each well, and the luminescence produced was recorded as relative luminescence units (RLU) after 10 min of incubation using a multi-mode microplate reader (Spectra Max iD3; Molecular Devices, United States). The mean percent inhibition (MPI) of rCpPyK activity by each compound was derived by dividing the difference in luminescence (RLU) between the compound-treated wells and the DMSO-treated wells by the luminescence of the DMSO-treated wells and multiplying the product by 100:
(1) MPI=[(MeanRLUDMSO-treated-MeanRLUCompound-treated)÷MeanRLUDMSO-treated]×100.
Half maximal inhibitory concentration (IC50) values were determined by applying a non-linear regression analysis curve fit to the mean dose-response data for varying concentrations of each compound using GraphPad PRISM® v8. Reactions were performed in triplicate and repeated at least thrice.

Solubility = type: physicochemical; conditions: solvent not stated
[4] = ref https://pubchem.ncbi.nlm.nih.gov, cited from earlier work; for Polar surface area: topological
rCpPyK = target: T1, rCpPyK (Cryptosporidium parvum, UniProt Q5CSM7); conditions: previously reported for CpPyK; ref Denton et al. (1996); cited from earlier work
T1 sequence (Q5CSM7 7-532): B1 chain

[5] = substrate: C=C(OP(=O)(O)O)C(=O)O; assay: rCpPyK enzyme kinetics on substrates (Michaelis–Menten); type: biochemical, Cryptosporidium parvum; conditions: other: 6 ng/μl rCpPyK, varying substrate; pH 7.5
Experimental: as §1

[6] = substrate: Nc1ncnc2c1ncn2[C@@H]1O[C@H](COP(=O)(O)OP(=O)(O)O)[C@@H](O)[C@H]1O; assay: as above; type: biochemical, Cryptosporidium parvum; conditions: other: 6 ng/μl rCpPyK, varying substrate; pH 7.5
Experimental: as §1

[7] = HCT-8, read-out: Anti-C. parvum EC50, 0 h PI
[8] = HCT-8, read-out: Anti-C. parvum EC50, 2 h PI

| Molecule | conformity to Lipinski's and Veber's rules for drug-likeness [1] | effect on in vitro proliferation and viability of C. parvum (C. parvum) | EC50 (C. parvum; [7]) [µM] | EC50 (C. parvum; [8]) [µM] | effect on proliferation of intracellular C. parvum in HCT-8 cells (C. parvum) | CC50 at 24 h [2] [µM] | IC50 [3] [µM] | solubility (Solubility) | Number of Hydrogen bond acceptors [4] | Number of Hydrogen bond donors [4] | Polar surface area [4] [Å²] | Selectivity index (CC50/EC50) (C. parvum; HCT-8 CC50 / anti-C. parvum EC50) | IC50 ([3]; 6 ng/μl rCpPyK, 3 h at room temperature, read-out: Enzyme inhibition IC50) [µM] | Km (rCpPyK) [µM] | Vmax (rCpPyK) [nmol/µg/min] | Km [5] | Vmax [5] [µmol/min/mg] | Km [6] [µM] | Vmax [6] [µmol/min/mg] |
| --- | --- | --- | --- | --- | --- | --- | --- | --- | --- | --- | --- | --- | --- | --- | --- | --- | --- | --- | --- |
| CN(C)c1ccc(/C=C/C(=O)c2cc(Cl)ccc2O)cc1 [NSC11437, (E)-1-(5-chloro-2-hydroxyphenyl)-3-[4-(dimethylamino)phenyl]prop-2-en-1-one] | conform | significant inhibitory effect | 23.8 | 27.3 | significant (P < 0.05) concentration-dependent inhibitory effect | 612 | 156 | low solubility | 3 | 1 | 40.5 |  |  |  |  |  |  |  |  |
| COc1cccc(/C=C2\CCc3ccccc3C2=O)c1 [NSC636718, (2E)-2-[(3-methoxyphenyl)methylidene]-3,4-dihydronaphthalen-1-one] | conform | significant inhibitory effect | 33.8 | 33.6 | significant (P < 0.05) concentration-dependent inhibitory effect | 106 |  |  | 2 | 0 | 26.3 | 3.15 | 117 |  |  |  |  |  |  |
| C=C(OP(=O)(O)O)C(=O)O [Phosphoenolpyruvate, phosphoenolpyruvate] |  |  |  |  |  |  |  |  |  |  |  |  |  | 320 | 6.82 |  |  |  |  |
| B1 |  |  |  |  |  |  |  |  |  |  |  |  |  |  |  | 1.29 (0.32^a) mM | 12.1 | 40 | 4.64 |
